The values below come from patent publication US9145372B2, “Pyridazine derivatives, compositions and methods for treating cognitive impairment” (AGENEBIO, INC., priority 2010, dated 2015).

The target of series [1] is T1, GABAA α1 receptors (α1β2γ2) (Homo sapiens, UniProt P14867+P18507).
T1 construct: expressed in transfected cells; host or cells: Xenopus laevis oocytes injected with cDNAs
T1 sequence (P14867 28-456): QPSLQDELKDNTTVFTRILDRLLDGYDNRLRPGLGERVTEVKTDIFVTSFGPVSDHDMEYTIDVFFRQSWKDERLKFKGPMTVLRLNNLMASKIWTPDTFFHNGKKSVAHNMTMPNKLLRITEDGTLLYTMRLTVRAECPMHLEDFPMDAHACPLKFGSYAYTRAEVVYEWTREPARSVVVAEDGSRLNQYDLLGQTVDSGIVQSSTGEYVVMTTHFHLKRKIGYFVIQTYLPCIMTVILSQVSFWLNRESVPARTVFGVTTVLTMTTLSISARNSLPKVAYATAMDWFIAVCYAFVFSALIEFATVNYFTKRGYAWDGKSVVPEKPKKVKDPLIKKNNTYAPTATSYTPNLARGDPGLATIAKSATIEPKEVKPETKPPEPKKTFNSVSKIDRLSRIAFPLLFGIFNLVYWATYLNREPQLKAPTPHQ
T1 sequence (P47870 25-512 partner limits assumed): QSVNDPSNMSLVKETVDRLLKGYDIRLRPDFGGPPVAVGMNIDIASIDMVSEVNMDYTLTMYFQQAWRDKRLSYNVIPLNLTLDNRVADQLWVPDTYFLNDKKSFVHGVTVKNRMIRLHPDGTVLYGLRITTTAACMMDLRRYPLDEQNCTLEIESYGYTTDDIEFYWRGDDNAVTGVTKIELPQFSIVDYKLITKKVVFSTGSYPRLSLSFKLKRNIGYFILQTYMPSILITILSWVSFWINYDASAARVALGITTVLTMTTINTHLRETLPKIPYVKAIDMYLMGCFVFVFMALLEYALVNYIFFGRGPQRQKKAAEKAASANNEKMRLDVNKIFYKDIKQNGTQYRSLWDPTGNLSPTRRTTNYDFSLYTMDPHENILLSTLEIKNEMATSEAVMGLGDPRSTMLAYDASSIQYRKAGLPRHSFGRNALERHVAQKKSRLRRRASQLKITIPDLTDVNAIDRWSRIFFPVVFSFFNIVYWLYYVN
T1 sequence (P18507 40-467 limits assumed): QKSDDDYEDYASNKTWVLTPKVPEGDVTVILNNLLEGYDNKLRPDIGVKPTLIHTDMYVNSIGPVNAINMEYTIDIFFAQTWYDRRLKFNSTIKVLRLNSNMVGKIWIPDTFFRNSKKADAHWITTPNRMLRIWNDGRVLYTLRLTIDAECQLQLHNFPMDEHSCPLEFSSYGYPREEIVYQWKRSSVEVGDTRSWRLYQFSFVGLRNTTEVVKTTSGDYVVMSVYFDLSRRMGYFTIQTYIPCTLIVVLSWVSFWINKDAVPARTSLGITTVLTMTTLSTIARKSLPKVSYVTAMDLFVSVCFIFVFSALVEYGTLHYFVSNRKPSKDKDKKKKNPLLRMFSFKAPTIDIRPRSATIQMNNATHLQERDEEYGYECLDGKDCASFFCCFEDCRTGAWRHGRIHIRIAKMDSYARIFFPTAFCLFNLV
As to the kind of experiment: GABA-gated Cl- current in Xenopus oocytes expressing GABAA α1β2γ2 (TEVC), off-target activity. Conditions: concentration response 0.01-100 μM; FIGS. 1(A)-(D). The format is cell-based. An excerpt: (§1) Step 1: Establish Clones of GABAAR Subunits (α5, β3, γ2, α1, α2 and α3) and Prepare the Corresponding cRNAs: Human clones of GABAA-R α5, β3, γ2, α1, α2 and α3 subunits are obtained from commercial resources (e.g., OriGene, http://www.origene.com and Genescript, http://www.genescript.com). These clones are engineered into pRC, pCDM, pcDNA, and pBluescript KSM vector (for oocyte expression) or other equivalent expression vectors. Conventional transfection agents (e.g., FuGene, Lipofectamine 2000, or others) are used to transiently transfect host cells.
Xenopus oocytes were isolated according to previously published procedures (see, e.g., Goldin et al. Methods Enzymol. 207:266-279 (1992)). The isolated Xenopus oocytes were injected with GABAAR cDNAs (1:1:1 ratio for a total volume of 1 ng of α1βγ2 or α5β3γ2) cloned into mammalian expression vectors. In particular, α1, β2, γ2 were cloned into pcDNA3.1. and α5 and β3 were cloned into pcDNA3.1 myc-His. Vectors were verified by partial sequencing (DNA Core Facility, University of Southern California, USA). After injection, oocytes were stored in incubation medium (Modified Barth's Saline (MBS) supplemented with 2 mM sodium pyruvate, 0.5 mM theophylline and 50 mg/L gentamycin), in petri dishes (VWR, San Dimas, Calif.). All solutions were sterilized by passage through 0.22 μM filters. […] Oocytes were used in experiments for up to 5 days after injection.
A high-throughput two-electrode voltage clamp (TEVC) system (OpusXpress A6000; Molecular Devices, Union City, Calif.), which automates the impalement of oocytes, fluid delivery and current recording from 8 oocytes in parallel, was used to carry out all electrophysiological recordings.
Xenopus Oocytes expressing GABAA-R α5β3γ2 or α1β2γ2 subtype, as prepared in section (A) above, were placed in 8 chambers of OpusXpress and perfused by MBS at 3 mL/min. Glass electrodes back-filled with 3 M KCl (0.5-3 megaohms) were used. Membrane potential of oocytes was voltage-clamped at −60 mV. Oocytes with holding current larger than 0.5 μA were discarded.
Data for each experimental point were obtained from 4 or more Xenopus oocytes and from at least two different frogs. The n refers to the number of Xenopus oocytes tested. Results are expressed as mean±SEM. […] Prism (GraphPAD Software, San Diego, Calif.) and Excel were used to perform curve fitting and statistical analyses.

In series [2] the target is T2, GABAA α5β3γ2 subtype receptor (Homo sapiens, UniProt P18507+P31644).
T2 construct: myc-His (vector-encoded); expressed in transfected cells; host or cells: Xenopus laevis oocytes injected with cDNAs
T2 sequence (P31644 32-462): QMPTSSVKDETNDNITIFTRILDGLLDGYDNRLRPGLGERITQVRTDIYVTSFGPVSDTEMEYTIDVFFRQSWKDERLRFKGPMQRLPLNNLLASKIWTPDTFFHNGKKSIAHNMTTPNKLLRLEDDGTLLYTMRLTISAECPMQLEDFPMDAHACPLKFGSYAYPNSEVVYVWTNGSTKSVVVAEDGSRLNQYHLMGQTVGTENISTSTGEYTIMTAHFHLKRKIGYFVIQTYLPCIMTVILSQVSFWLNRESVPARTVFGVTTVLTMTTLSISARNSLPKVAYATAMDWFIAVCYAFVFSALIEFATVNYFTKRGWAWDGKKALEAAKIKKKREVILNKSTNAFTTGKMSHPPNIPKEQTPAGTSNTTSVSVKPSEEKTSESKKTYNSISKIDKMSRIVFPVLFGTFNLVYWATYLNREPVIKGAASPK
T2 sequence (P28472 26-473 partner): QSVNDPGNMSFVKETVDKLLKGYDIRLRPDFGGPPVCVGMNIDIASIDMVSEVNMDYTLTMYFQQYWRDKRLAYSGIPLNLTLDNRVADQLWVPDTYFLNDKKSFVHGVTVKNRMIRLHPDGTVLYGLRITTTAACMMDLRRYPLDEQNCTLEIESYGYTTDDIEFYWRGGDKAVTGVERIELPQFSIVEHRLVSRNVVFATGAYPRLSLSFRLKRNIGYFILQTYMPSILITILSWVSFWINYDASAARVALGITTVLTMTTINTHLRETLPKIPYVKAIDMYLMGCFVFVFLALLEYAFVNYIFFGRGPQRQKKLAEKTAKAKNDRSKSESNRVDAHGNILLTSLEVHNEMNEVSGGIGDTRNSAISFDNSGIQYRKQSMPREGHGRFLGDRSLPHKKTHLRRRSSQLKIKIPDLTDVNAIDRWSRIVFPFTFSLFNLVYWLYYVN
T2 sequence (P18507 40-467 limits assumed): T1 sequence (P18507 40-467 limits assumed)
As to the kind of experiment: GABA-gated Cl- current potentiation in Xenopus oocytes expressing GABAA α5β3γ2 (TEVC). The format is cell-based. The note with it: for positive allosteric modulation of GABA at GABAA α5 receptors: concentration response 0.01-100 μM, FIGS. 1(A)-(D); for activation at 1 µM: read-out: GABA α5 EC50 % potentiation.
Description: as §1
Adult female Xenopus laevis frogs were purchased from Nasco (Fort Atkinson, Wis.). […] All chemicals used were of reagent grade. […] Stock solutions of Diazepam, Flumazenil and compounds of the present invention were prepared in dimethyl sulfoxide (DMSO) and then diluted to an appropriate concentration with the extracellular solution just before use. To avoid adverse effects from DMSO exposure, the final concentration of DMSO was not higher than 0.3% (v/v).
Upon conclusion of compound testing and successful washout, a 1.0 μM Diazepam was tested and used for comparative activity on the two GABAAR subtypes.
Other concentrations of the test compound may also be tested following the same protocol.
Results are expressed as mean±SEM.

Series [3] has as its target GABAA α5 receptor (Rattus norvegicus, UniProt P18508+P19969). As to the kind of experiment: GABAA α5 receptor occupancy in vivo with Ro 15-4513 tracer (hippocampus vs cerebellum). Conditions: tracer 1 μg/kg, i.v., after vehicle administration. The source says:
Adult male Long Evans rats (265-295 g, Charles River, Portage, Mich., n=4/group) were used for GABAA α5 receptor occupancy studies. Rats were individually housed in ventilated stainless-steel racks on a 12:12 light/dark cycle. Food and water were available ad libitum.
Ro 15-4513 was used as a receptor occupancy (RO) tracer for GABAA α5 receptor sites in the hippocampus and cerebellum. Ro 15-4513 was chosen as the tracer based on its selectivity for GABAA α5 receptors relative to other alpha subunit containing GABAA receptors and because it has been successfully used for GABAA α5 RO studies in animals and humans (see, e.g., Lingford-Hughes et al., J. Cereb. Blood Flow Metab. 22:878-89 (2002); Pym et al, Br. J. Pharmacol. 146: 817-825 (2005); and Maeda et al., Synapse 47: 200-208 (2003)). Ro 15-4513 (1 μg/kg), was dissolved in 25% hydroxyl-propyl beta-cyclodextrin and administered i.v. 20′ prior to the RO evaluations. Methyl 3,5-diphenylpyridazine-4-carboxylate (0.1-10 mg/kg) was synthesized by Nox Pharmaceuticals (India) and was dissolved in 25% hydroxyl-propyl beta-cyclodextrin and administered i.v. 15′ prior to tracer injection.
The rats were sacrificed by cervical dislocation 20′ post tracer injection. The whole brain was rapidly removed, and lightly rinsed with sterile water. Trunk blood was collected in EDTA coated eppendorf tubes and stored on wet ice until study completion. Hippocampus and cerebellum were dissected and stored in 1.5 ml eppendorf tubes, and placed on wet ice until tissue extraction. In a drug naïve rat, six cortical brain tissues samples were collected for use in generating blank and standard curve samples.
Acetonitrile containing 0.1% formic acid was added to each sample at a volume of four times the weight of the tissue sample. For the standard curve (0.1-30 ng/g) samples, a calculated volume of standard reduced the volume of acetonitrile. The sample was homogenized (FastPrep-24, Lysing Matrix D; 5.5 m/s, for 60 seconds or 7-8 watts power using sonic probe dismembrator; Fisher Scientific) and centrifuged for 16-minutes at 14,000 rpm. The (100 μl) supernatant solution was diluted by 300 μl of sterile water (pH 6.5). This solution was then mixed thoroughly and analyzed via LC/MS/MS for […] (tracer) and methyl 3,5-diphenylpyridazine-4-carboxylate.
Receptor occupancy was determined by the ratio method which compared occupancy in the hippocampus (a region of high GABAA α5 receptor density) with occupancy in the cerebellum (a region with low GABAA α5 receptor density) and additionally by a high dose of the GABAA α5 negative allosteric modulator L-655,708 (10 mg/kg, i.v.) to define full occupancy.

“Also recorded” adds a separate entry of the source.

Sequence of GABAA α5 receptor (P19969 32-464 limits assumed): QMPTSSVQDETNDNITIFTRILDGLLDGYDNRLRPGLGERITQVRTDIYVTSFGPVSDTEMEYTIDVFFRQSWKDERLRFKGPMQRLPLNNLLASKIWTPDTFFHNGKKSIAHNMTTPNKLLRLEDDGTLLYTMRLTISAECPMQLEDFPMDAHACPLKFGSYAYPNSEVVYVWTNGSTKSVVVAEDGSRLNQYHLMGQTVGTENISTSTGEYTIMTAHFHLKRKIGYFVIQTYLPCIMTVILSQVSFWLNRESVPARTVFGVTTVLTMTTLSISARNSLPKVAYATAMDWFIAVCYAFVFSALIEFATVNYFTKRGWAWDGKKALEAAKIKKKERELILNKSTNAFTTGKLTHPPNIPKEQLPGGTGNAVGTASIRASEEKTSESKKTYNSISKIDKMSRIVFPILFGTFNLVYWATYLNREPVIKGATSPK
Sequence of GABAA α5 receptor (P18508 39-466): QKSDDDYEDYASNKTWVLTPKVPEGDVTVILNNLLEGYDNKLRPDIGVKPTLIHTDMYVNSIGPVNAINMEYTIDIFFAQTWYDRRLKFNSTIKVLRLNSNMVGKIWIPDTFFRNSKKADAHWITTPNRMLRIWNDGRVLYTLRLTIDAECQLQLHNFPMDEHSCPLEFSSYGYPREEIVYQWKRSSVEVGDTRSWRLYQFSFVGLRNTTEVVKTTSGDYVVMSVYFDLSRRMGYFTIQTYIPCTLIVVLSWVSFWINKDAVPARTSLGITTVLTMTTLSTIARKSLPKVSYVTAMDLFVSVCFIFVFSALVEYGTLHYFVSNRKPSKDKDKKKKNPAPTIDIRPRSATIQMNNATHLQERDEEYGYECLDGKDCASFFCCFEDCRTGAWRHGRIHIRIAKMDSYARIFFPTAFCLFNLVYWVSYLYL
Sequence of GABAA α5 receptor (P63079 26-473 partner): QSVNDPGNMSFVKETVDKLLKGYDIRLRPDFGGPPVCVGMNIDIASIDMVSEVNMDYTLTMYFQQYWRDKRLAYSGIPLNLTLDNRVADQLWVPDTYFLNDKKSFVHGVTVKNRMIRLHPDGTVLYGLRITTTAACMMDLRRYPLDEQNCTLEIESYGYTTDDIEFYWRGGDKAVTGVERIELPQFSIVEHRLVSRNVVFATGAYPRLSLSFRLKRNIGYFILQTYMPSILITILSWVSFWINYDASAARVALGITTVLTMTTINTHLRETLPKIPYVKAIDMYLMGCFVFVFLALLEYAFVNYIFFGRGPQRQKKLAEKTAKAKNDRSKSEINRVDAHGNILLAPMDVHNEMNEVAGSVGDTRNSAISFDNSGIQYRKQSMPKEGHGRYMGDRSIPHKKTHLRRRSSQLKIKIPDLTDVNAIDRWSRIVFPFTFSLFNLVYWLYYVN

Regarding `COC(=O)c1coc(-c2c(-c3ccccc3)cnnc2-c2ccccc2)n1` [Compound 26, Methyl 2-(3,5-diphenylpyridazin-4-yl)oxazole-4-carboxylate], the “positive allosteric modulation at GABAA α1 receptors” value in series [1] is given as “markedly reduced positive allosteric modulation; also recorded: no evidence of activity”. Also, in series [2], the “positive allosteric modulation of GABA at GABAA α5 receptors” value is “strong positive allosteric modulation” and the activation at 1 µM was 15.8%.

Regarding `CN(C)C(=O)c1c(-c2ccccc2)cnnc1-c1ccccc1` [Compound 4], the “positive allosteric modulation at GABAA α1 receptors” value in series [1] is recorded as “markedly reduced positive allosteric modulation”. Also, in series [2], the “positive allosteric modulation of GABA at GABAA α5 receptors” value is on record as “strong positive allosteric modulation” and the activation at 1 µM was found to be 42%. Take `CCc1coc(-c2c(-c3ccccc3)cnnc2-c2ccccc2)n1` [Compound 22, 2-(3,5-diphenylpyridazin-4-yl)-4-ethyloxazole]: the activation at 1 µM in series [2] worked out at 8.6%. The same measure, in the same setting: the value for `CC(C)NC(=O)c1c(-c2ccccc2)cnnc1-c1ccccc1` [Compound 2] was 8.2%; that for `O=C(c1c(-c2ccccc2)cnnc1-c1ccccc1)N(Cc1ccccc1)Cc1ccccc1` [Compound 5] was 4.6%.

Regarding `CCOC(=O)c1ncn2c1CN(C)C(=O)c1cc(N=[N+]=[N-])ccc1-2` [Ro 15-4513], the “levels of Ro 15-4513 in hippocampus compared with cerebellum” value in series [3] was more than 5 fold.

Turning to `O=C(NCc1ccccc1)c1c(-c2ccccc2)cnnc1-c1ccccc1` [Compound 9], the activation at 1 µM in series [2] was determined as 10%. On the same count and under the same terms, the value for `CC1COC(c2c(-c3ccccc3)cnnc2-c2ccccc2)=N1` (centres unmarked) [Compound 21, 2-(3,5-diphenylpyridazin-4-yl)-4-methyl-4,5-dihydrooxazole] was 5.3%; that for `COc1cccc(-c2nncc(-c3ccccc3)c2C(=O)O)c1` [Compound 11] was 19.2%; that for `COc1cccc(-c2nncc(-c3ccccc3)c2-c2nc(C)co2)c1` [Compound 24] was 6%.

Regarding `COC(=O)C1COC(c2c(-c3ccccc3)cnnc2-c2ccccc2)=N1` (centres unmarked) [Compound 25, Methyl 2-(3,5-diphenylpyridazin-4-yl)-4,5-dihydrooxazole-4-carboxylate], in series [2], the activation at 1 µM amounted to 8.6%. The same measure, in the same setting: the value for `NC(=O)c1c(-c2ccccc2)cnnc1-c1ccccc1` [Compound 3] was 11.1%; that for `CNC(=O)c1c(-c2ccccc2)cnnc1-c1ccccc1` [Compound 1, N-methyl-3,5-diphenylpyridazine-4-carboxamide] was 8.5%.
